Measurements from patent publication US10526316B2, “Quinoxaline and pyridopyrazine derivatives as PI3Kβ inhibitors” (Janssen Pharmaceutica NV, priority 2015, dated 2020).
Read-outs that look alike come from different tables or passages of the source.

Key:
[1] = biological target: T1, PI3Kβ (Homo sapiens, UniProt P42338); assay: Enzyme binding assay (KINOMEscan, DiscoveRx); details: PIK3Cβ_h, read-out: Kd PIK3Cβ_h
T1 construct: purchased DiscoveRx Corporation, San Diego (contract service, KINOMEscan)
T1 sequence (P42338 whole entry): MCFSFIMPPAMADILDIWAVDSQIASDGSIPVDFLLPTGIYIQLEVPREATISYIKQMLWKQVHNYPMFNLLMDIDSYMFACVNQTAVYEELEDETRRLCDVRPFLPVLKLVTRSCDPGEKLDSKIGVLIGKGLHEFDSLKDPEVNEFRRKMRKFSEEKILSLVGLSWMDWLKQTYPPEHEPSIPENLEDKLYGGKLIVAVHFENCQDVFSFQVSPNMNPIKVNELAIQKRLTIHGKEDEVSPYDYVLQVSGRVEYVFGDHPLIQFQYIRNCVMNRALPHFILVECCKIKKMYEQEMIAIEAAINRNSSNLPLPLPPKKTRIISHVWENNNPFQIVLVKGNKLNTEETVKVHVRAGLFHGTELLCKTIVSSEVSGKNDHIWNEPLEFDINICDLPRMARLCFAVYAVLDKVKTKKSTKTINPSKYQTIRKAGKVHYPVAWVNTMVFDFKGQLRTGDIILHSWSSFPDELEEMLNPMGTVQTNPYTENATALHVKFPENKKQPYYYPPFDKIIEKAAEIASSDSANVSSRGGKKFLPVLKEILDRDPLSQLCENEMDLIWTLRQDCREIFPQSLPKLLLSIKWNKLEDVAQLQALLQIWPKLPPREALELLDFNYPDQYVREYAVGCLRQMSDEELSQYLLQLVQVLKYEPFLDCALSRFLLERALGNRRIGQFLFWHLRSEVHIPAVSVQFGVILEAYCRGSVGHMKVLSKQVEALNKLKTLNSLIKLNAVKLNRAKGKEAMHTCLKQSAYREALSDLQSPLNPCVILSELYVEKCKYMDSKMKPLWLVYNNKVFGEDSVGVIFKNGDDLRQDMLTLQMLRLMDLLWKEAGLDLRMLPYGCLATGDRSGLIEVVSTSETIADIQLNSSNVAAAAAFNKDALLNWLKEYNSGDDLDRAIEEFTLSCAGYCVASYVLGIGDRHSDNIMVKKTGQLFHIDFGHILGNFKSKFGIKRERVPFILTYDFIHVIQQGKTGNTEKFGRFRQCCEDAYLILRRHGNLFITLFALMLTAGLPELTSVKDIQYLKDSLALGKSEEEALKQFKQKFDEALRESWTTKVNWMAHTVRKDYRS
How it was run: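 Compounds are profiled for binding to the kinase using KINOMEscan. The affinity is then reported as an inhibitor Kd in nanomolar units.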

[2] = biological target: T2, PI3Kδ (Homo sapiens, UniProt O00329); assay: Enzyme binding assay (KINOMEscan, DiscoveRx); details: PIK3Cδ_h
T2 construct: purchased DiscoveRx Corporation, San Diego (contract service, KINOMEscan)
T2 sequence (O00329 1-1044): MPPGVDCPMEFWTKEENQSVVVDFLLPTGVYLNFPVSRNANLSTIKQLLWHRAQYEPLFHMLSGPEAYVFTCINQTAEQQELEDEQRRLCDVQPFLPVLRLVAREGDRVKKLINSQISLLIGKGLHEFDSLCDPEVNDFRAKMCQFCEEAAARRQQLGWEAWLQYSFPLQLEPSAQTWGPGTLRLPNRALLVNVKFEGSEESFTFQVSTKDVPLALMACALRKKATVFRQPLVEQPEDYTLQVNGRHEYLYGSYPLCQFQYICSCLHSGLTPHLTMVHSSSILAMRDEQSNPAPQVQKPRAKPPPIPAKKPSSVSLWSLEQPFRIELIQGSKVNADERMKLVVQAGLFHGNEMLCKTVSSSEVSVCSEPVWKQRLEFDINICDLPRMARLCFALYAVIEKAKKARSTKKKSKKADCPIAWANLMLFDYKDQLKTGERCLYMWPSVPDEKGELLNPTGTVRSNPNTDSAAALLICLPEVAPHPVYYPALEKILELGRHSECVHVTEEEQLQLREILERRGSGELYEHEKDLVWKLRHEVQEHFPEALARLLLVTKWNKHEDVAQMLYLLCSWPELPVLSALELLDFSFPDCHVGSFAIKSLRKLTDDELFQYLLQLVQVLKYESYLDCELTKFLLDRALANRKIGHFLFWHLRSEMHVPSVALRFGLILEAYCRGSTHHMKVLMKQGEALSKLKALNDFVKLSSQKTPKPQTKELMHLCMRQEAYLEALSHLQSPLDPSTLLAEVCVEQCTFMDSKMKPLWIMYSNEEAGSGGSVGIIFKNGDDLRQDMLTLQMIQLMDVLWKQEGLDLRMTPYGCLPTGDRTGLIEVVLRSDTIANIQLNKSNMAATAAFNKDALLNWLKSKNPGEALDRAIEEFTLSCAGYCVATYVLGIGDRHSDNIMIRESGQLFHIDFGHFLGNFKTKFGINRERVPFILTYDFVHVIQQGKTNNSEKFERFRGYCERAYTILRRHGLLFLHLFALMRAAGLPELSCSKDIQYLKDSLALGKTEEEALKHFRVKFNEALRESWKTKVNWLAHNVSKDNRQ
How it was run: (§1)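 Compounds were profiled by KINOMEscan to obtain kinase binding affinities.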

[3] = biological target: T3, kinase enzymes (Homo sapiens, UniProt P42336); assay: Enzyme binding assay (KINOMEscan, DiscoveRx), further kinases of Table A; details: PIK3Cα_h
T3 construct: purchased DiscoveRx Corporation, San Diego (contract service, KINOMEscan)
T3 sequence (P42336 whole entry): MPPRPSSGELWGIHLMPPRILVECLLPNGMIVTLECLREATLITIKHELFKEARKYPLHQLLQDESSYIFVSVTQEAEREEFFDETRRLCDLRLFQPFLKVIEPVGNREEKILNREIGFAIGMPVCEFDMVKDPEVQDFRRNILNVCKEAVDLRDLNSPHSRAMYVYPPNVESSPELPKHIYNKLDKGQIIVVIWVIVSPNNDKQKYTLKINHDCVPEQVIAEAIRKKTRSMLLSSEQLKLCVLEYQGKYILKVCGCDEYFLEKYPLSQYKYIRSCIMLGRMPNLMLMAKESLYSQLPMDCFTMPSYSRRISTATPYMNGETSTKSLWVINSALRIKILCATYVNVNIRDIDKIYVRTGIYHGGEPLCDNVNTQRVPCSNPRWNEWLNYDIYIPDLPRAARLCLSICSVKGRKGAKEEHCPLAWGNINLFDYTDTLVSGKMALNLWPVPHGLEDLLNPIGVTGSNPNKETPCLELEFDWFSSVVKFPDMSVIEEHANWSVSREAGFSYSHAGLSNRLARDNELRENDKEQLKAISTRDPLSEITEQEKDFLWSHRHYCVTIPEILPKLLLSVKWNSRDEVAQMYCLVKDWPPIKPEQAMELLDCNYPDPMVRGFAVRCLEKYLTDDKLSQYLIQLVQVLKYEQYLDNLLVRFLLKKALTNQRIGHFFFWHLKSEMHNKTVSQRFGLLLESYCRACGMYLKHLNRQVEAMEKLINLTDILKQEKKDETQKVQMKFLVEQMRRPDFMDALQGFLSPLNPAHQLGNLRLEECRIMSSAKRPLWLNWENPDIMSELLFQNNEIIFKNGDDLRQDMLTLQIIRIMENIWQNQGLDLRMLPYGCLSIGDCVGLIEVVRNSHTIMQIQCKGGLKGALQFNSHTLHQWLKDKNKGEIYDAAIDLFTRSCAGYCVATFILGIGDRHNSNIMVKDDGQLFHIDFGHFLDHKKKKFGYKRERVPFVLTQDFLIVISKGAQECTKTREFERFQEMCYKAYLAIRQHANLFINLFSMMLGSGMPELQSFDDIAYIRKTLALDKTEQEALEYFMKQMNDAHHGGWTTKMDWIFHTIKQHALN
How it was run: as §1

[4] = biological target: T4, kinase enzymes (Homo sapiens, UniProt P42345); assay: as above; details: MTOR_h
T4 construct: purchased DiscoveRx Corporation, San Diego (contract service, KINOMEscan)
How it was run: as §1

[5] = biological target: T5, kinase enzymes (Homo sapiens, UniProt P48736); assay: as above; details: PIK3Cγ_h
T5 construct: purchased DiscoveRx Corporation, San Diego (contract service, KINOMEscan)
T5 sequence (P48736 whole entry): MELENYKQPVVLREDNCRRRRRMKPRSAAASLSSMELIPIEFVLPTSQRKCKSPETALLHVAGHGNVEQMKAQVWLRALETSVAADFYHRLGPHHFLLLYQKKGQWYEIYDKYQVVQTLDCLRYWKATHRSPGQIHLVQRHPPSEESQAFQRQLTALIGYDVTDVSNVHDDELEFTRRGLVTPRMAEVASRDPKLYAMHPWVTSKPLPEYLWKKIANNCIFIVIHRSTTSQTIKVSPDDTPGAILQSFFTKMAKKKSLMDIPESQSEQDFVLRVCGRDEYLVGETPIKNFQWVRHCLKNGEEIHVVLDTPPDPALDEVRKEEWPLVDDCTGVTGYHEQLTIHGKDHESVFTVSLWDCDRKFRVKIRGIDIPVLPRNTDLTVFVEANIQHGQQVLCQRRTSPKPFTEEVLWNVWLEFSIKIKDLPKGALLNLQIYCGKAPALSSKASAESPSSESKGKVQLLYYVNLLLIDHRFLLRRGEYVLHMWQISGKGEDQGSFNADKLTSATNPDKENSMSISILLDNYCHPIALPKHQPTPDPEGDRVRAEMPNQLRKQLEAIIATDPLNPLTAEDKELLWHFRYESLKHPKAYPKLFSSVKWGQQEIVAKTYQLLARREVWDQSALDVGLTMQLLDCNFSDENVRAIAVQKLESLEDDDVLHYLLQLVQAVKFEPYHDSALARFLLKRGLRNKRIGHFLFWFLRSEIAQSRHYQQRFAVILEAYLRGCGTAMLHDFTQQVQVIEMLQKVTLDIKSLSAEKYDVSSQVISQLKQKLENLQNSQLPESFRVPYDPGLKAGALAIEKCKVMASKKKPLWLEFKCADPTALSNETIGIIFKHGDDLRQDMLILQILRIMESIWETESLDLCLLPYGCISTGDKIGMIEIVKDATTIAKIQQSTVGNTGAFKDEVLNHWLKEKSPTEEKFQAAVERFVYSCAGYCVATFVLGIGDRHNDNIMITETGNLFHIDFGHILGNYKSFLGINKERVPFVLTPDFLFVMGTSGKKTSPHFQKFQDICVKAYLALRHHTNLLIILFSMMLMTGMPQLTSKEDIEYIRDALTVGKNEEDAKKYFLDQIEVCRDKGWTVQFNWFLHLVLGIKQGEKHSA
How it was run: as §1

[6] = system: Akt phosphorylated at Ser473 in PC-3 cells; assay: Cellular assay: phosphorylation of Akt at Ser473 in PC-3 cells (MSD ELISA); assay type: cell-based; details: PC-3 cells, 60 min compound incubation, MSD ELISA, read-out: IC50 pAkt_S473
How it was run: (§2)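 Electrochemiluminescent sandwich ELISA read-out: phospho-specific capture (Ser473 or Thr308), Sulfo-tag anti-total Akt detection, signal proportional to phospho-Akt. Cells treated 60 min at 37° C with compound, DMSO 0.3%. IC50 fitted from five concentrations.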

[7] = system: Akt phosphorylated at Thr308 in PC-3 cells; assay: Cellular assay: phosphorylation of Akt at Thr308 in PC-3 cells (MSD ELISA); assay type: cell-based; details: PC-3 cells, 60 min compound incubation, MSD ELISA, read-out: IC50 pAkt_Thr308
How it was run: as §2

Kd [1]	Kd [2]	Kd [3]	Kd [4]	Kd [5]	IC50 [6]	IC50 [7]	melting point	IC50 ([6]; Homo sapiens, PC-3, 1 h)	IC50 ([7]; Homo sapiens, PC-3, 1 h)	SMILES
7 nM	513 nM	2190 nM	21400 nM	5620 nM	–	41 nM	80 °C	58 nM	–	CC(Nc1ccc(F)c(F)c1)c1cc(C(=O)NCCO)cc2ncc(N3CCOCC3)nc12 (single isomer, unassigned) [Compound 279a]
12 nM	562 nM	1700 nM	20900 nM	12000 nM	87 nM	45 nM	80 °C	–	–	CC(Nc1ccc(F)c(F)c1)c1cc(C(=O)NCCCO)cc2ncc(N3CCOCC3)nc12 (single isomer, unassigned) [Compound 280a]
0.3 nM	72 nM	1510 nM	23400 nM	4070 nM	5 nM	3 nM	102 °C	–	–	CC(Nc1ccc(F)c(F)c1)c1cc(C(=O)NCCN(C)C)cc2ncc(N3CCOCC3)nc12 (single isomer, unassigned) [Compound 281a]
10 nM	939 nM	2080 nM	19100 nM	8140 nM	90 nM	61 nM	113 °C	–	–	CC(Nc1cc(F)c(F)c(F)c1)c1cc(C(=O)NC[C@@H](C)O)cc2ncc(N3CCOCC3)nc12 (single isomer, unassigned) [Compound 284a]
2150 nM	> 30200 nM	> 30200 nM	> 30200 nM	5070 nM	> 513 nM	> 513 nM	112 °C	–	–	CC(Nc1cc(F)c(F)c(F)c1)c1cc(C(=O)NC[C@@H](C)O)cc2ncc(N3CCOCC3)nc12 (single isomer, unassigned) [Compound 284b]
19500 nM	> 30200 nM	> 30200 nM	> 30200 nM	4570 nM	–	–	120 °C	> 513 nM	> 513 nM	Cc1ccc(NC(C)c2cc(C(=O)NCCO)cc3ncc(N4CCOCC4)nc23)cc1F (single isomer, unassigned) [Compound 295b]
2 nM	191 nM	1480 nM	> 30200 nM	5490 nM	–	–	140 °C	29 nM	19 nM	CC(Nc1ccc(F)c(F)c1)c1cc(C(=O)N2CC[C@@H](O)C2)cc2ncc(N3CCOCC3)nc12 (single isomer, unassigned) [Compound 300a]
1320 nM	> 30200 nM	> 30200 nM	> 30200 nM	> 30200 nM	–	–	135 °C	> 513 nM	> 513 nM	CC(Nc1ccc(F)c(F)c1)c1cc(C(=O)N2CCC[C@H](O)C2)cc2ncc(N3CCOCC3)nc12 (single isomer, unassigned) [Compound 302a]
0.1 nM	26 nM	339 nM	22900 nM	2750 nM	14 nM	6 nM	121 °C	–	–	CC(Nc1ccc(F)c(F)c1)c1cc(C(=O)NCC2CCCN2)cc2ncc(N3CCOCC3)nc12 (single isomer, unassigned) [Compound 329a]
42 nM	1780 nM	6030 nM	22900 nM	6310 nM	> 513 nM	> 513 nM	124 °C	–	–	CC(Nc1ccc(F)c(F)c1)c1cc(C(=O)NCC2CCCN2)cc2ncc(N3CCOCC3)nc12 (single isomer, unassigned) [Compound 329b]

Continued, compound first:

SMILES	Kd [1]	Kd [2]	Kd [3]	Kd [4]	Kd [5]	IC50 [6]	IC50 [7]	melting point	IC50 ([6]; Homo sapiens, PC-3, 1 h)	IC50 ([7]; Homo sapiens, PC-3, 1 h)
COC(=O)c1cc(C2CCCN2c2cc(F)cc(F)c2)c2nc(N3CCOCC3)cnc2c1 (single isomer, unassigned) [Compound 249]	4 nM	955 nM	794 nM	> 30200 nM	2400 nM	71 nM	52 nM	211 °C	–	–
O=C(O)c1cc(C2CCCN2c2cc(F)cc(F)c2)c2nc(N3CCOCC3)cnc2c1 (single isomer, unassigned) [Compound 251]	0.3 nM	23 nM	8 nM	676 nM	65 nM	–	–	299 °C	52 nM	23 nM
CC(C)NCCNC(=O)c1cc(C(C)Nc2cc(F)c(F)c(F)c2)c2nc(N3CCOCC3)cnc2c1 (single isomer, unassigned) [Compound 283a]	7 nM	1550 nM	12000 nM	> 30200 nM	19100 nM	–	–	173 °C	81 nM	52 nM
CC(Nc1ccc(F)c(F)c1)c1cc(C(=O)N2CCN3CCC[C@H]3C2)cc2ncc(N3CCOCC3)nc12 (single isomer, unassigned) [Compound 287b]	27 nM	2950 nM	9330 nM	> 30200 nM	> 30200 nM	–	–	95 °C	> 513 nM	417 nM
CC(Nc1cc(F)c(F)c(F)c1)c1cc(C(=O)NCC(C)(C)O)cc2ncc(N3CCOCC3)nc12 (single isomer, unassigned) [Compound 292a]	17 nM	603 nM	2820 nM	32400 nM	21900 nM	155 nM	98 nM	110 °C	–	–
CNCCOCCN(C)C(=O)c1cc(C(C)Nc2cc(F)c(F)c(F)c2)c2nc(N3CCOCC3)cnc2c1 (single isomer, unassigned) [Compound 315a]	2240 nM	> 30200 nM	> 30200 nM	> 30200 nM	> 30200 nM	–	> 20.4 nM	86 °C	195 nM	–
CNCCOCCN(C)C(=O)c1cc(C(C)Nc2cc(F)c(F)c(F)c2)c2nc(N3CCOCC3)cnc2c1 (single isomer, unassigned) [Compound 315b]	1 nM	162 nM	2750 nM	> 30200 nM	5490 nM	~110 nM	~85 nM	90 °C	–	–
CC(Nc1cccc(F)c1)c1cc(C(=O)N2CCC[C@H](O)C2)cc2ncc(N3CCOCC3)nc12 (single isomer, unassigned) [Compound 320a]	2 nM	182 nM	513 nM	> 30200 nM	4470 nM	–	–	110 °C	20 nM	17 nM
CC(Nc1cccc(F)c1)c1cc(C(=O)N2CC[C@@H](O)C2)cc2ncc(N3CCOCC3)nc12 (single isomer, unassigned) [Compound 321a]	1 nM	174 nM	832 nM	> 30200 nM	4680 nM	–	–	118 °C	18 nM	8 nM
CC(Oc1cccc(F)c1)c1cc(C(=O)NCCO)cc2ncc(N3CCOCC3)nc12 (single isomer, unassigned) [Compound 334a]	19 nM	1070 nM	5370 nM	26900 nM	12900 nM	–	219 nM	136 °C	339 nM	–
